In one test the test system is Micrococcus luteus. Kind of test: Antibacterial activity against Micrococcus luteus ATCC 9343. It is filed as functional.
The test system of another test is Escherichia coli. Kind of test: Antibacterial activity against Escherichia coli NIH-JC2 at 30 microg/mL. It is filed as functional, organism-based.
A further test relates to Candida albicans. Kind of test: Antifungal activity against Candida albicans IFO1594 at 30 microg/mL. It is filed as functional, organism-based.
In another test the test system is HeLa. The experiment in a line: Cytotoxicity against human HeLa cells after 48 hrs by MTT assay. It is filed as functional, cell-based. (In general: Tetrazolium assays rely on reduction of a dye to a coloured formazan, in cell work by metabolically active cells.)
Another test concerns MCF7. Kind of test: Cytotoxicity against human MCF7 cells after 48 hrs by MTT assay. It is filed as functional, cell-based. Particulars: MCF7, 48 h.

SMILES strings stand for the structures. Values after ≈ are worked out from the molar mass of the structure shown. Active and inactive are the calls of the source.

Drawing on ChEMBL document CHEMBL1781888, “Marianins A and B, prenylated phenylpropanoids from Mariannaea camptospora” (J Nat Prod, 2011), this text covers MIC, inhibition and IC50 for 2 compounds.

By MIC is commonly meant the smallest concentration in the dilution series that meets the test's criterion for growth inhibition. Low readings indicate greater potency, high ones weaker potency. By IC50 is commonly meant the point on the concentration scale where inhibition reaches its midpoint. Lower therefore signals greater potency in that assay. `C=CC(C)(C)CC(=O)c1c(C)cc(OCC=C(C)C)cc1O` [MARIANIN B] came in with a minimum inhibitory concentration (MIC) against Micrococcus luteus of 30 µg/mL (≈ 99.2 µM). For the same compound, the inhibition entry in the test on Escherichia coli and in the test with Candida albicans was “inactive” in each case. In addition, the concentration for half-maximal inhibition (IC50) with HeLa and with MCF7 was more than 100 µM in each case.

`CC(C)=CCOc1cc(C)c2c(OCC=C(C)C)cc(=O)oc2c1` [MARIANIN A] registered a minimum inhibitory concentration (MIC) with Micrococcus luteus of 15 µg/mL (≈ 45.7 µM). Besides, the inhibition entry with Escherichia coli and in the test with Candida albicans was “inactive” throughout. Besides, the IC50 in the test on HeLa stood at 34 µM; in the test on MCF7 it was 39 µM.
